# System: bEnd.3 cells
# Experiment: Cellular ROS levels (DCFH-DA) by single cell analyzer
# Type: cell-based
# Conditions: 2 hours, FIG. 10
# Protocol: (10) The effect of lipid nanoparticles formed from the vincamine derivative (compound 2 (A5-B2-C6) as an example) on cellular ROS levels was detected using a single cell analyzer:
# To detect cellular oxidative stress and intracellular reactive oxygen species (ROS) levels, a dichlorodihydrofluorescein diacetate (DCFH-DA) reactive oxygen species assay kit was used to detect the green fluorescence signal of ROS. bEnd.3 cells were seeded in cell culture dishes (50000 cells per dish) and cultured in 1 mL of culture medium for 12 hours. The culture medium in the wells was discarded and replaced with fresh complete medium. Lipid nanoparticles formed from the vincamine derivative (compound 2 (A5-B2-C6)) were added to the cells, and the cells were incubated in the dark at 37° C. in a 5% CO2 atmosphere for 2 hours. The cells in each group were incubated in PBS buffer containing […] DCFH-DA at 37° C. for 30 min. The cells were then washed three times in PBS buffer solution containing 0.1% BSA and fixed on glass slides. ROS levels were detected at the single-cell level using a fiber optic probe with a tip of approximately […]. The tip was inserted into the cells fixed in PBS, and photon counts were continuously detected and calculated within 150 s.
row,Compound,cellular ROS levels
1,CCCCCCCC/C=C\CCCCCCCC(=O)OCC(C[N+](C)(C)C)OC(=O)CCCCCCC/C=C\CCCCCCCC (centres unmarked) [DOTAP],high ROS levels
2,CCCCC/C=C\C/C=C\CCCCCCCCC(CCCCCCCC/C=C\C/C=C\CCCCC)OC(=O)CCCN(C)C [Dlin-MC3-DMA],high ROS levels

# Reference: US20260035369A1, “VINCAMINE DERIVATIVES, PREPARATION METHOD THEREFOR, AND USE THEREOF” (SOUTHWEST UNIVERSITY, priority 2023, published 2026)
